Experimental data reported in patent publication US11407977B2, “Tissue scaffolds for electrically excitable cells” (Innovative Surface Technologies, Inc., priority 2013, dated 2022).

Test system: bioartificial rat hippocampal brain slice
Test: Evoked fEPSP field recording on bioartificial tissue scaffold with antagonist cocktail
Assay type: cell-based
Settings: cocktail in ACSF: CNQX 10 microM, APV 50 microM, Bicuculline Methbromide 50 microM; 10 minute wash-in; 28 d.i.v.; drug-subtracted average fEPSP, FIG. 12
Experimental: Dissociated hippocampal cells were seeded on open-field scaffolds and grown in an incubator as described in Example 9, to generate bioartificial open field hippocampal brain tissue “slices.” FIG. 11 is a photo micrograph of the bioartificial tissue, on its scaffold, in a conventional field recording chamber.
Bioartificial tissue scaffolds were removed from the incubator for electrophysiological testing between 14-90 days in vitro (d.i.v.). For electrophysiological field recordings, bioartificial tissue scaffolds were suspended on a nylon mesh in a small (350-400 μl) recording chamber (FIG. 11) and perfused with artificial cerebrospinal fluid (ACSF) at a rate of 2.5-3 ml/min (submerged mode). The temperature in the recording chamber was held at 30-32° C. Recordings were made using an ACSF-filled glass micropipette (2-4 MΩ) positioned as shown (FIG. 6) and connected via a head stage to the amplifier (A-M Systems model 1800). Signals were digitized at 100 kHz using a Digidata 1550 series interface (Axon instruments) running ClampEx 10.4. Synaptic responses were evoked by electrical stimulation using a bipolar tungsten electrode (tip spacing, 140 micrometers; Frederick Haer Company) and a 100 microsecond square wave test pulse was delivered at intervals of twenty seconds (FIG. 6). Stimulus-response relationship was established over the range of 0-1000 microV. […]

Compound | effect on evoked fEPSP
N[C@@H](CCCP(=O)(O)O)C(=O)O [APV] | sensitivity of the bioartificial rat hippocampal brain slice
N#Cc1cc2[nH]c(=O)c(=O)[nH]c2cc1[N+](=O)[O-] [CNQX] | sensitivity of the bioartificial rat hippocampal brain slice
